In US20260207551A1, “PHOSPHOGLICERATE DEHYDROGENASE INHIBITORS FOR THE TREATMENT OF FIBROSIS” (CHIESI FARMACEUTICI S.P.A., priority 2022, published 2026):
Where two headings read alike, the source gives them in different places.

Assays:
collagen I (Col-I) = assay: TGF-b induced Collagen I expression in NHLFs (Western blot); format: cell-based, Human; details: NHLF
Excerpt: The antifibrotic activity of compounds of the present invention has been monitored measuring the expression of fibrotic mediators, collagen I (Col-I) and alpha smooth muscle actin (α-SMA) after treatment in lung cells with TGF-β in comparison with Nintedanib (see Frank Hilberg et al, Cancer Res 2008 Jun. 15; 68(12):4774-82), and allosteric inhibitor NCT-503 (see Hamanaka et al., Am J Respir Cell Mol Biol. 2018 May; 58(5):585-593).
Human normal lung fibroblasts (NHLFs) were purchased from Lonza (Basel, Switzerland). NHFLs were cultured in Eagle's Minimum Essential medium (EMEM) w/o serine and glycine, supplemented with 10% Fetal Bovine Serum (FBS), antibiotics (50 U/ml penicillin and 0.05 mg/ml streptomycin) and 2 mM L-glutamine, in an atmosphere of 95% air and 5% CO2 at 37° C. NHLFs cultures were used between passage 1 and 9. Before all the experiments, cells were incubated overnight in serum-free medium.
NHLFs were seeded in 12-well plates at cultured until 70% of confluency. To examine the expression of fibrotic markers, cells were treated with different concentrations of Compounds and NCT-503 in EMEM medium for 1 h followed by stimulation with TGF-β for 48 h at 37° C., 5% CO2. […] Detection and quantification were performed with Odyssey imaging system (Li-cor) using GAPDH as loading control.

αSMA = assay: Phenotypic assay: high content aSMA staining in NHLF cells; format: cell-based, Human; details: NHLF, 72 h incubation
Protocol: NHLF cells (Lonza #CC2512) were seeded as 2000 cells/well in 384-well plates in MEM medium w/o serine and glycine (Sigma #M2279)+1% pen/strep+5 mM L-glutamine +10% FBS and incubated overnight at 37° C., 5% CO2.
The next day, cells were washed with PBS and starvation MEM medium w/o serine and glycine (0% FBS) was added and cells were incubated overnight at 37° C., 5% CO2. The day after, cells were pre-incubated with compounds or vehicle (0.3% DMSO) for 1 h. Compounds were tested at 9 consecutive 3-fold dilutions starting from 30 μM. Each compound was tested in duplicate. Cells were further incubated for 72 h at 37° C., 5% CO2, 95% humidity. After 72 h of incubation, αSMA expression was quantified using immunostaining: • Fixation in 4% paraformaldehyde, • Blocking with 3% BSA, 2% FBS, 0.2% Triton-X in PBS, • Primary ab. anti-αSMA (AbCam #ab7817) diluted 500× in blocking buffer • Anti-mouse secondary ab. AF488 (ThermoFisher #A11029) • % of αSMA positive cells was determined by High Content Imaging (Molecular Device), data analysis was performed using MetaXpress software (Molecular Devices) and % of αSMA positive was further used to calculate % of inhibition for tested compounds. Total cell number was determined by Hoechst staining and % of viability over TGFβ stimulated controls was calculated.

synthesis of 13C3-serine = assay: PK/PD model: in vivo [13C6] glucose tracing, inhibition of 13C3-serine synthesis; set-up: species or system mouse male (C57BL/6J); details: for inhibition at 300 mg/kg: Mus musculus
Protocol: As PHGDH catalyzes the rate-limiting step of glucose-derived serine synthesis, a pharmacokinetic/pharmacodynamic (PK/PD) experiment aimed to assess the inhibition of the synthesis of ^13C3-serine after oral administration of ^13C6-glucose was performed in mouse male (C57BL/6J).
Animals were fasted overnight before treatment. Following 0.5 h from administration of either Compound 19 at dose of 300 mg/kg or vehicle (0.5% Tween 80, 0.5% Methylcellulose in H2O), ^13C6-glucose was administered by oral gavage (2 g/kg, Merck Life Science Srl). Blood, lung, and brain samples were collected at 1 h, 6.5 h and 24.5 h after treatment with Compound 19 or vehicle.
The tissue concentration of ^13C3-serine was determined by a liquid chromatography-tandem mass spectrometry (LC/MS/MS) assay. GraphPad Prism (version 8.1.2) was used for drawing graphs and for statistical analysis. Plasma or tissue homogenate samples (tissues were homogenized with a water/acetonitrile 50/50 mixture) were extracted with 3 volumes of acetonitrile. Supernanatant was injected into HPLC system (Agilent 1260 Quaternary Pump equipped with an Agilent 1200 High Performance Autosampler SL; Agilent), using a Kinetex EVO C18 analytical column (100 A, 50×2.1 mm, 2.6 μm; Phenomenex) for the analysis of Compound 19 or an InfinityLab Poroshell 120 Hilic-Z (50×2.1 mm 2.7 μm; Agilent) for the analysis of ^13C3-serine. The mobile phases consisted of 0.1% formic acid in water (solvent A) and 0.1% formic acid in acetonitrile (solvent B); chromatographic separation was performed with gradient elution method (see conditions below): • Compound 19 (0.0-0.5 min, 10% B; 0.5-3.0 min, gradient to 90% B; 3.0-5.0 min. 90% B; 5.0-6.0 min, gradient to 10% B; 6.0-10.0 min, 10% B—flow rate: 0.4 mL/min). • S^13C3-serine (0.0-0.5 min, 95% B; 0.5-4.0 min, gradient to 60% B; 4.0-5.0 min, 60% B; 5.0-6.0 min, gradient to 95% B; 6.0-10.0 min, 95% B—flow rate: 0.4 mL/min).
Mass spectrometric analysis was performed on a linear ion trap triple quadrupole mass spectrometer (4000 Q TRAP; AB SCIEX) equipped with a turbo spray ion source; mass spectrometer was operated in positive ion mode and quantification was achieved by multiple reaction monitoring (MRM) mode. Peak integration was performed using Analyst (version 1.6.2.). GraphPad Prism (version 8.1.2) was used for drawing graphs and for statistical analysis.
After 0.5 h from administration of Compound 19a at dose of 3, 10, 30, 100 and 300 mg/kg po, Compound 19 at dose of 300 mg/kg po or vehicle po (0.5% Tween 80, 0.5% Methylcellulose in H2O), mice received ^13C6-glucose by oral gavage (2 g/kg, Merck Life Science Srl). […] Blood was withdrawn by cardiac puncture and collected in heparin tubes.

Which results are given for `CC(C)C(C(=O)O)c1ccc(C2(NC(=O)c3cc4c(Cl)c(Cl)ccc4n3C)CCOC2)cc1` (racemic) [Compound 19, (±)-2-(4-(3-(4,5-Dichloro-1-methyl-1H-indole-2-carboxamido)tetrahydro-furan-3-yl)phenyl)-3-methylbutanoic acid]?
IC50 (collagen I (Col-I); Homo sapiens, TGF-β 48 h, confidence interval in brackets, read-out: TGF-b induced Collagen I (pIC50-C.I.) (converted)): 31.6 nM; FMT induced by TGF-β, Collagen protein expression (FIG. 1) (collagen I (Col-I)): decrease of Collagen protein expression; aSMA pIC50 (αSMA): 5.9; brain serine concentration (in words) (synthesis of 13C3-serine; 300 mg/kg po, 1 h): without reaching the statistical significance; inhibition of labelled serine in brain (synthesis of 13C3-serine; 300 mg/kg, any timepoint (1, 6.5, 24.5 h)): no significant inhibition; inhibition at 300 mg/kg (synthesis of 13C3-serine; 300 mg/kg po, 1 h, read-out: inhibition of labelled serine in lung): 85%; inhibition at 300 mg/kg (synthesis of 13C3-serine; 300 mg/kg po, 1 h, read-out: inhibition of labelled serine in plasma): 87%; inhibition at 300 mg/kg (synthesis of 13C3-serine; 300 mg/kg, at 1 and 6.5 h, read-out: inhibition of labelled serine in plasma and lung): 70 to 85%
